Tests used:
BE(2)-C cells [1] = experiment: Flow cytometric analysis of LysoTracker DND-99 staining (lysosomal accumulation); format: cell-based, human; conditions: 24 h treatment
Procedure: Six days after siRNA transfection or 24 h after treatment with HDAC or lysosomal inhibitors, cells were stained for 1 h with 50 nM LysoTracker® Red DND-99 in medium under standard cell culture conditions. Cells were washed with ice-cold RPMI w/o phenol-red and detached using Trypsin/EDTA for 3 minutes at 37 °C. Cells were centrifuged, resuspended in RPMI w/o phenol red and LysoTracker® Red fluorescence was quantified on a BD FACSCanto II platform using the PE filter setting.

HDAC6 [2] = target: T1, HDAC6 (Homo sapiens, UniProt Q9UBN7); experiment: In-cell target engagement (NanoBRET) assay, NanoLuc-HDAC6; format: binding; conditions: HeLa cells stably transfected with NanoLuc-HDAC6, 2 h
T1 sequence (Q9UBN7 1-1215): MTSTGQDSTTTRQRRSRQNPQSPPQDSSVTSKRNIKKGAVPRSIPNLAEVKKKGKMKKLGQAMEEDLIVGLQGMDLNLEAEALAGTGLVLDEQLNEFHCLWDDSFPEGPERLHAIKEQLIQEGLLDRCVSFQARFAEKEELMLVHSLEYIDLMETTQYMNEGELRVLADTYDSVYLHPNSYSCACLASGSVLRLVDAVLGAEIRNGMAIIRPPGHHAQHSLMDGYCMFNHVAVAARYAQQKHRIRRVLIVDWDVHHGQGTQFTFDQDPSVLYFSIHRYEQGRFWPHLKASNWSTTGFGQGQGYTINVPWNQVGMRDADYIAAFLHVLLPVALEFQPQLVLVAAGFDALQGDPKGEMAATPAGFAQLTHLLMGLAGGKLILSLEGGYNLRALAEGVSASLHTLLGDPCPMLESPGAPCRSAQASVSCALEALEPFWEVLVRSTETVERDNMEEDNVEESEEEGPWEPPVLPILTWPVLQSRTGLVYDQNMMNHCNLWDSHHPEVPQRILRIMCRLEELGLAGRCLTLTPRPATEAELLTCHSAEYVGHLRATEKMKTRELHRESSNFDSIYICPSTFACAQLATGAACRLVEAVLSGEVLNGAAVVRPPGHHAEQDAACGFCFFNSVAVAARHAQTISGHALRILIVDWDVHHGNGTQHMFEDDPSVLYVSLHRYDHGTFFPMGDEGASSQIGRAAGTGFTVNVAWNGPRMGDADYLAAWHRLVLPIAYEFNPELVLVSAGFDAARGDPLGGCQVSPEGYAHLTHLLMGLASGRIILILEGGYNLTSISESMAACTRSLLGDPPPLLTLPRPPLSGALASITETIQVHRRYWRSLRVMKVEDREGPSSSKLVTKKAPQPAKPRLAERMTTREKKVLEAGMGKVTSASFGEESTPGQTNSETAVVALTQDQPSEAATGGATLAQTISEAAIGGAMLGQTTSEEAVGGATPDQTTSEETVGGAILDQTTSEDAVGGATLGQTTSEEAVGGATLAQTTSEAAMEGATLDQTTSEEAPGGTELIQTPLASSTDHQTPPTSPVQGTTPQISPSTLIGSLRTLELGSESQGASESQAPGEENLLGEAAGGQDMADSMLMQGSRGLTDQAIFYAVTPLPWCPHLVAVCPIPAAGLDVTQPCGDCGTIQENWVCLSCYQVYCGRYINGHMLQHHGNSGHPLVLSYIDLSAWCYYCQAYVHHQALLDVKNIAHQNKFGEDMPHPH
Procedure: (§1) HeLa cells, stabily transfected with NanoBRET plasmids NanoLuc®-HDAC6 FL Fusion Vector and NanoLuc®-HDAC10 FL Fusion Vector (Promega, Madison, WI, USA) were seeded at 20.000 cells/well in white 96 well plates. Without further incubation, tracer (0.3 µM) and drugs were added in separate steps and plates were placed in a tissue culture incubator for 2 h. For NanoBRET quantification, plates were put at room temperature for 10 minutes. Nanoglow substrate, diluted in OptiMEM without phenol red, was added and measured within 10 minutes in an OPTIMA plate reader (460 nm emission for donor and 610LP filter for acceptor). The BRET signal was calculated by the ratio of acceptor signal and donor signal.

HDAC6 [3] = experiment: Western blot analysis of tubulin K40 acetylation as a marker for HDAC6 inhibition; format: cell-based, human; conditions: 24 h treatment
Procedure: Western blot analysis was performed as previously described. The following antibodies were used: anti-HDAC6 (sc-11420, Santa Cruz), anti-HDAC10 (H3413, Sigma), anti-acetylated histone H3 (06-911, Merck Millipore), anti-histone H3 (9715, Cell Signaling Technology, Cambridge UK), anti-LAMP-1 (H4A3, DHSB, Iowa City, IA, USA), anti-LAMP-2 (H4B4; Santa Cruz Biotechnology), anti-acetylated tubulin (6–11B-1; Sigma), anti-tubulin (2148, Cell Signaling Technology), anti P-glycoprotein (13978 S, Cell Signaling Technology) and anti-β-actin (clone AC-15; Sigma).

HDAC10 = target: T2, HDAC10 (Homo sapiens, UniProt Q969S8); experiment: In-cell target engagement (NanoBRET) assay, NanoLuc-HDAC10; format: binding
T2 construct: NanoLuc®-HDAC10 FL Fusion Vector; host or cells: HeLa cells, stably transfected
T2 sequence (Q969S8 1-669): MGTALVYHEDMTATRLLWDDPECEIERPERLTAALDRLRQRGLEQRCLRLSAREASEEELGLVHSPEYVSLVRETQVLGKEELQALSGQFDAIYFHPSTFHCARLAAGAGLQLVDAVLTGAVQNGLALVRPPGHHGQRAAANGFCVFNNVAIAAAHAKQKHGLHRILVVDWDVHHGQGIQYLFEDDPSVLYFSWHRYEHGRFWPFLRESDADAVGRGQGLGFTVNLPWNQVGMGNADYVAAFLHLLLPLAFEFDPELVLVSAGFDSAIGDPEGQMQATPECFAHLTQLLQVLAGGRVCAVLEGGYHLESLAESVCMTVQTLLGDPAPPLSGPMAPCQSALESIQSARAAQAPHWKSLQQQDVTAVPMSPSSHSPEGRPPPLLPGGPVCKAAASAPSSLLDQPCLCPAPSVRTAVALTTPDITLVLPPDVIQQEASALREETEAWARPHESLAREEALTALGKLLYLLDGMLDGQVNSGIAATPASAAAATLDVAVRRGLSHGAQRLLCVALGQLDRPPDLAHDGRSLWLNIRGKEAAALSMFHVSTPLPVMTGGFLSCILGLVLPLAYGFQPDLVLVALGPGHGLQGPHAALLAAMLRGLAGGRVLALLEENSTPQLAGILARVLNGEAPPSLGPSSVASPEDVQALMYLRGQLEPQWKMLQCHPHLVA
Source text: We next investigated if accumulation of lysosomes was also affected by inhibition of HDAC6 and HDAC10, respectively. […] Since no bona fide downstream target protein of HDAC10 has been described to date, we performed an in-cell target engagement (NanoBRET) assay that measures competitive displacement of a fluorescently-labeled tracer from NanoLuc® Luciferase coupled HDAC10 enzyme. […] To exclude that lysosomal accumulation after treatment with HDAC6/10 inhibitors was caused by off-target inhibition of class I HDACs, we treated BE(2)-C cells with 1 mM class I HDAC inhibitor valproic acid (VPA).
as §1

BE(2)-C cells [4] = experiment: Flow cytometric quantification of intracellular doxorubicin accumulation, BE(2)-C; format: cell-based, human; conditions: 100 ng/ml doxorubicin, 24 h co-treatment
Procedure: For flow cytometric quantification of intracellular doxorubicin after HDAC6/10 inhibition, BE(2)-C, SK-N-AS, IMR-32, HAP1 wild type and HDAC10 knockout cells were seeded in 6-well dishes at a density of 1.5 ∗ 10^5 cells/well (BE(2)-C and SK-N-AS, HAP1) and 3 ∗ 10^5 cells/well (IMR-32). Cells were treated with 25 ng/ml, 50 ng/ml, 100 ng/ml or 1 µg/ml doxorubicin, respectively, for 3–48 h (see respective figure legend). Where indicated, cells were co-treated with HDAC6/10 or lysosomal inhibitors. In case of co-treatment with vacuolin-1, vacuolin-1 was directly added to cells under doxorubicin treatment 1 h or 24 h prior to analysis. Flow cytometric quantification of intracellular doxorubicin after HDAC6, HDAC10 or P-glycoprotein knockdown in BE(2)-C cells was performed 5 days (P-glycoprotein) or 6 days (HDAC6/10) after transfection with siRNA. To that end, cells were seeded 3–4 days after transfection into 6-well dishes at 1.5 ∗ 10^5 cells per well and treated with 100 ng/ml doxorubicin +/− HDAC6/10 and lysosomal inhibitors for the last 24 h. After doxorubicin treatment, BE(2)-C, SK-N-AS, IMR-32 and HAP1 cells were washed with ice-cold RPMI w/o phenol-red and detached using Trypsin/EDTA for 3 minutes at 37 °C. Cells were centrifuged, resuspended in RPMI w/o phenol red and doxorubicin fluorescence was quantified on a BD FACSCanto II platform using the PE filter setting.

EC50 (BE(2)-C cells [1]; read-out: LysoTracker staining EC50): 6600 nM
IC50 (HDAC6 [2]): 2.21 nM
concentrations at which HDAC10 is inhibited (NanoBRET) (HDAC10): above 150 nM
IC50 (HDAC10; HeLa cells stably transfected with NanoLuc-HDAC10, 2 h): 564 nM
Structure (SMILES): CN1C(=O)C2CN(Cc3c2c2ccccc2n3Cc2ccc(C(=O)NO)cc2)C1=O (stereo not shown) [Marbostat-100]
concentrations at which LysoTracker staining is increased (BE(2)-C cells [1]): above 1 µM
concentrations inducing tubulin acetylation (HDAC6 [3]): ≥ 50 nM
concentrations at which intracellular doxorubicin levels are increased (BE(2)-C cells [4]): ≥ 5 µM

From article PMC6030077, “Dual role of HDAC10 in lysosomal exocytosis and DNA repair promotes neuroblastoma chemoresistance” (Scientific Reports, 2018)
